Reference: paper PMC2693028 (ChemMedChem, 2008)
Converted amounts (≈) assume the structure as drawn. “And” between values parts separate entries of the source, which are not always exact repeats. Identical values can stand only once. Like-named read-outs stand apart in the source and are kept apart here.

How the values were obtained:
[1] = tested on: Pseudomonas aeruginosa (ATCC strain 27853); experiment: microbe, parasite or virus in culture; format: cell-based; conditions: ATCC27853
[2] = tested on: vancomycin–resistant Enterococcus (VRE) (ATCC strain 51299); experiment: microbe, parasite or virus in culture; format: cell-based; conditions: for MBC / MIC: Enterococcus, ATCC51299|VRE
[3] = target: Enoyl reducase (ENR) from Bacillus anthracis (BaENR) (Bacillus anthracis, UniProt A0A6L8PBX8); experiment: biochemical; conditions: IC50
Enoyl reducase (ENR) from Bacillus anthracis (BaENR), sequence (A0A6L8PBX8 1-256): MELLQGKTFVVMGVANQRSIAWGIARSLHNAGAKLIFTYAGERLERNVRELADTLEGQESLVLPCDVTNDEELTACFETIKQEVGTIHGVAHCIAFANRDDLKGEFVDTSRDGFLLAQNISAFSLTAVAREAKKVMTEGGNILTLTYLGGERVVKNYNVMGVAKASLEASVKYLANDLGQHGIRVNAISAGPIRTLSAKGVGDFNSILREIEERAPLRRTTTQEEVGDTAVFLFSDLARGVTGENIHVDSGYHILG

HeLa cells [4] = experiment: cells; conditions: Homo sapiens, read-out: EC50 against HeLa cells
[5] = tested on: Listeria monocytogenes (10403S); experiment: microbe, parasite or virus in culture; format: cell-based; conditions: for MBC / MIC: Listeria monocytogenes
[6] = tested on: methicillin–resistant Staphylococcus aureus (ATCC strain 43300); experiment: microbe, parasite or virus in culture; format: cell-based
[7] = tested on: Enterococcus fecalis (ATCC strain 29212); experiment: microbe, parasite or virus in culture; format: cell-based; conditions: for MBC / MIC: Enterococcus, ATCC29212
[8] = tested on: Staphylococcus aureus (ATCC strain 29213); experiment: microbe, parasite or virus in culture; format: cell-based; conditions: ATCC29213|MSSA
[9] = tested on: Sterne strain B. anthracis; experiment: microbe, parasite or virus in culture; format: cell-based, Bacillus anthracis; conditions: for MBC / MIC: Bacillus anthracis
MHS = experiment: cells; format: cell-based; conditions: read-out: EC50 against MHS
[10] = tested on: Klebsiella pneumoniae (ATCC strain 700603); experiment: microbe, parasite or virus in culture; format: cell-based; conditions: for MBC / MIC: Klebsiella pneumoniae, ATCC700603
[11] = tested on: Escherchia coli (ATCC strain 25922); experiment: microbe, parasite or virus in culture; format: cell-based; conditions: for MBC / MIC: Escherichia coli, ATCC25922
ΔANR B. anthracis [12] = experiment: microbe, parasite or virus in culture; format: cell-based, Bacillus anthracis
HeLa cells [13] = conditions: human
ΔANR B. anthracis [14] = conditions: cited from earlier work
ENR in E. coli = conditions: cited from earlier work
PfENR = conditions: cited from earlier work
ENR in S. aurues = conditions: cited from earlier work
[15] = Staphylococcus aureus, ATCC43300|MRSA

Row | Compound | MIC [1] | MBC [2] | MIC [2] | IC50 [3] | EC50 (HeLa cells [4]) | MBC [5] | MIC [5] | MIC [6] | MBC [6, 15] | MIC [6, 15] | MBC [7] | MIC [7] | MBC [8] | MIC [8] | MBC [9] | MIC [9] | EC50 (MHS) | MBC [10] | MIC [10] | MBC [11] | also measured
1 | O=[N+]([O-])c1ccc(Oc2ccc(Cl)cc2O)c(Cl)c1 [Compound 6, 5-Chloro-2-(2-chloro-4-nitrophenoxy)phenol] | > 25 µg/mL | 37.5 ± 12.5 µg/mL (≈ 125 µM) | 5.7 ± 0.6 µg/mL (≈ 19 µM) | 290 nM and 300 nM | 29.3 µg/mL (≈ 97.6 µM) | 14.1 ± 3.9 µg/mL (≈ 47 µM) | 2.8 ± 0.3 µg/mL (≈ 9.33 µM) | 0.3 ± 0.3 µg/mL (≈ 1 µM) | 0.4 ± 0.1 µg/mL (≈ 1.33 µM) | 0.3 µg/mL (≈ 1 µM) | 31.3 ± 6.3 µg/mL (≈ 104 µM) | 4.4 ± 0.8 µg/mL (≈ 14.7 µM) | 2.9 ± 1.2 µg/mL (≈ 9.66 µM) | 0.1 ± 0.1 µg/mL (≈ 0.333 µM) | 3.9 ± 0.8 µg/mL (≈ 13 µM) | 1.9 ± 0.3 µg/mL (≈ 6.33 µM) | 9.9 µg/mL (≈ 33 µM) | 12.5 µg/mL (≈ 41.7 µM) | 1.8 ± 0.4 µg/mL (≈ 6 µM) | 12.5 µg/mL (≈ 41.7 µM) | MIC [11]: 0.3 ± 0.1 µg/mL (≈ 1 µM); MBC (ΔANR B. anthracis [12]; Bacillus anthracis): 3.1 ± 1.1 µg/mL (≈ 10.3 µM)
2 | CCCc1ccc(Oc2ccc([N+](=O)[O-])cc2Cl)c(O)c1 [Compound 11, 2-(2-Chloro-4-nitrophenoxy)-5-propylphenol] | > 25 µg/mL | 15.6 ± 3.1 µg/mL (≈ 50.7 µM) | 5.7 ± 0.3 µg/mL (≈ 18.5 µM) | 500 nM | 41.4 µg/mL (≈ 135 µM) | 14.1 ± 3.9 µg/mL (≈ 45.8 µM) | 2.8 ± 0.9 µg/mL (≈ 9.1 µM) | 0.3 ± 0.3 µg/mL (≈ 0.975 µM) | 0.5 ± 0.2 µg/mL (≈ 1.62 µM) | 0.3 µg/mL (≈ 0.975 µM) | 12.5 µg/mL (≈ 40.6 µM) | 4.4 ± 0.5 µg/mL (≈ 14.3 µM) | 2.9 ± 1.2 µg/mL (≈ 9.42 µM) | 0.1 ± 0.1 µg/mL (≈ 0.325 µM) | 3.9 ± 0.8 µg/mL (≈ 12.7 µM) | 1.9 µg/mL (≈ 6.17 µM) | 22.6 µg/mL (≈ 73.4 µM) | 8.3 ± 2.1 µg/mL (≈ 27 µM) | 1.8 ± 0.9 µg/mL (≈ 5.85 µM) | 1.2 ± 0.4 µg/mL (≈ 3.9 µM) | MBC/MIC [2]: 2.7; MBC/MIC [5]: 5.0; MBC/MIC [6]: 1.9; MBC/MIC [7]: 2.9; MBC/MIC [9]: 2.1; MBC/MIC [10]: 4.7; MBC/MIC [11]: 4.5; MIC [11]: 0.3 ± 0.2 µg/mL (≈ 0.975 µM); EC50/MIC ratio (HeLa cells [13]): 15–20; MBC/MIC (ΔANR B. anthracis [12]): 1.8; MIC (ΔANR B. anthracis [12]): 2.2 ± 0.0 µg/mL (≈ 7.15 µM); MBC (ΔANR B. anthracis [12]; Bacillus anthracis): 3.9 ± 0.8 µg/mL (≈ 12.7 µM); MIC (ΔANR B. anthracis [12]; Bacillus anthracis): 1.9 to 3.1 µg/mL (≈ 6.17 to 10.1 µM)
3 | Oc1cc(Cl)ccc1Oc1ccc(Cl)cc1Cl [Triclosan] |  |  |  |  |  |  |  |  |  |  |  |  |  |  |  |  |  |  |  |  | MIC (ΔANR B. anthracis [14]): 3.1 µg/mL (≈ 10.7 µM); IC50 (ENR in E. coli): 7250 nM; IC50 (PfENR): 73 nM; IC50 (ENR in S. aurues): 70 nM; MIC (ΔANR B. anthracis [12]; Bacillus anthracis): 3.1 µg/mL (≈ 10.7 µM)
